Measured values from paper PMC6680701, “Brain Delivery of Thyrotropin-Releasing Hormone via a Novel Prodrug Approach” (Pharmaceutics, 2019).
Square brackets hold non-standard residues; d marks the D form. Peptide text beside a SMILES is read from it. ξ: configuration not given here. ξGly(decyl) = CCCCCCCCCCC(N)C(=O)O

Experiments:
[1] = In vitro metabolic stability in brain homogenate; type: in vitro ADME; conditions: mouse, male CD-1 mouse brain homogenate, 10 µM test compound
Description: (§1) Metabolic stability studies were carried out as reported before using freshly made brain homogenate (20% w/v) and plasma at 37 °C, in triplicate. For obtaining brain homogenates, a Bead Bug microtube homogenizer (Benchmark Scientific, Edison, NJ, USA) was used. For obtaining plasma, blood was collected in BD Vacutainer® Sodium Heparin tubes (Becton, Dickinson and Co., Franklin Lakes, NJ, USA) followed by centrifugation. Each biological matrix was spiked with compound (1) or TRH to create 10 µM solutions. KYP-2047, a POP inhibitor, was used in selected experiments at 50 µM concentration. Sample aliquots (100 µL) of TRH-containing matrices were removed after 2, 4, 6, 8, 10, 15, and 30 min, while sample aliquots (100 µL) of prodrug-containing matrices were obtained at 5, 10, 20, 30, 40, 60, 90, 120, and 210 min. Sample aliquots were added to 200 µL of acetic acid solution (20% v/v) in acetonitrile, thoroughly vortexed and, then, centrifuged before LC–MS/MS analysis. For LC separation, a Kinetex-C8 column (10 cm × 4.6 mm i.d., dp = 2.6 µm; Phenomenex; Torrance, CA, USA) with the eluent mixed from (A) H2O with 0.1% (v/v) formic acid and (B) acetonitrile with 0.1% (v/v) formic acid, flow rate of 400 µL/min, and gradient elution by a 10-min linear program from 0% B to 90% B were employed. Half-life (t1/2) values were calculated by assuming pseudo-first-order degradation.

[2] = In vitro metabolic stability in plasma; type: in vitro ADME; conditions: male CD-1 mouse plasma, 10 µM test compound, n = 3, ± SD; for half-life: mouse, plasma, read-out: t1/2 in Plasma
Description: as §1

[3] = 37 °C, n = 3, ± SD, read-out: t1/2 in 20% (w/v) Brain Homogenate

| Compound | half-life [1, 3] [h] | half-life ([1]; with POP inhibitor KYP-2047 at 50 µM, n = 3, read-out: t1/2 in 20% (w/v) Brain Homogenate) [h] | half-life ([2]; 37 °C) [h] | half-life ([2]; with POP inhibitor KYP-2047 at 50 µM) [h] | t1/2 in Plasma ([2]; with POP inhibitor KYP-2047 at 50 µM, listed as prodrug) |
| --- | --- | --- | --- | --- | --- |
| CCCCCCCCCCC(N)C(=O)NC(CCCCCCCCCC)C(=O)N1CCC[C@H]1C(=O)N1CCC[C@H]1C(=O)N[C@@H](CCC(N)=O)C(=O)N[C@@H](Cc1c[nH]cn1)C(=O)N1CCC[C@H]1C(N)=O (stereo partly drawn) [(1), C12-C12-Pro-Pro-Gln-His-Pro-NH2] (H-[ξGly(decyl)][ξGly(decyl)]PPQHP-NH2) | 0.783 ± 0.1 | > 24 | 1.67 ± 0.117 | 1.92 ± 0.217 | did not change |
| NC(=O)[C@@H]1CCCN1C(=O)[C@H](Cc1cnc[nH]1)NC(=O)[C@@H]1CCC(=O)N1 [TRH, pGlu-His-Pro-NH2, reference compound] | < 0.0833 | – | ~0.117 | – | – |
